Experiment: Resting energy expenditure after oral ingestion of PX, crossover, two participants
Assay type: in vivo, human
Protocol: Upon determination of baseline resting energy expenditure, two participants were assigned in a randomized, double-blind, placebo-controlled, crossover fashion to ingest a non-energetic placebo (maltodextrin), 100 mg paraxanthine (PX), 200 mg PX or 300 mg PX. All supplements were orally ingested with 8 fluid ounces of cold tap water. The order of administration for all interventions was randomized using a random allocation software to ensure randomization and to avoid order effects. After ingestion, participants completed all assessments in an identical fashion 30, 60, 90, 120, and 180 minutes after ingestion of their assigned supplement. All study visits took place between 0600-1000 hours. At least 72 hours of rest took place between each condition.

## Cn1c(=O)[nH]c2ncn(C)c2c1=O [PX, paraxanthine]
100 mg PX, 30 min, person one
  Resting Energy Expenditure: 1,943 kcal/day
100 mg PX, 30 min, person two
  Resting Energy Expenditure: 1,690 kcal/day
100 mg PX, 60 min, person one
  Resting Energy Expenditure: 1,862 kcal/day
100 mg PX, 60 min, person two
  Resting Energy Expenditure: 1,809 kcal/day
100 mg PX, 90 min, person one
  Resting Energy Expenditure: 1,921 kcal/day
100 mg PX, 90 min, person two
  Resting Energy Expenditure: 1,899 kcal/day
100 mg PX, 120 min, person one
  Resting Energy Expenditure: 1,990 kcal/day
100 mg PX, 120 min, person two
  Resting Energy Expenditure: 1,787 kcal/day
100 mg PX, 180 min, person one
  Resting Energy Expenditure: 2,129 kcal/day
100 mg PX, 180 min, person two
  Resting Energy Expenditure: 1,796 kcal/day
100 mg PX, Average of both
  Resting Energy Expenditure MEAN: 1,883 kcal/day
100 mg PX, person one
  Resting Energy Expenditure MEAN: 1,969 kcal/day
100 mg PX, person two
  Resting Energy Expenditure MEAN: 1,796 kcal/day
200 mg PX, 30 min, person one
  Resting Energy Expenditure: 2,007 kcal/day
200 mg PX, 30 min, person two
  Resting Energy Expenditure: 1,703 kcal/day
200 mg PX, 60 min, person one
  Resting Energy Expenditure: 1,702 kcal/day
200 mg PX, 60 min, person two
  Resting Energy Expenditure: 1,782 kcal/day
200 mg PX, 90 min, person one
  Resting Energy Expenditure: 2,048 kcal/day
200 mg PX, 90 min, person two
  Resting Energy Expenditure: 1,864 kcal/day
200 mg PX, 120 min, person one
  Resting Energy Expenditure: 2,221 kcal/day
200 mg PX, 120 min, person two
  Resting Energy Expenditure: 1,872 kcal/day
200 mg PX, 180 min, person one
  Resting Energy Expenditure: 2,067 kcal/day
200 mg PX, 180 min, person two
  Resting Energy Expenditure: 1,853 kcal/day
200 mg PX, Average of both
  Resting Energy Expenditure MEAN: 1,912 kcal/day
200 mg PX, person one
  Resting Energy Expenditure MEAN: 2,009 kcal/day
200 mg PX, person two
  Resting Energy Expenditure MEAN: 1,815 kcal/day
300 mg PX, 30 min, person one
  Resting Energy Expenditure: 2,267 kcal/day
300 mg PX, 30 min, person two
  Resting Energy Expenditure: 1,840 kcal/day
300 mg PX, 60 min, person one
  Resting Energy Expenditure: 2,354 kcal/day
300 mg PX, 60 min, person two
  Resting Energy Expenditure: 1,749 kcal/day
300 mg PX, 90 min, person one
  Resting Energy Expenditure: 2,312 kcal/day
300 mg PX, 90 min, person two
  Resting Energy Expenditure: 1,769 kcal/day
300 mg PX, 120 min, person one
  Resting Energy Expenditure: 2,436 kcal/day
300 mg PX, 120 min, person two
  Resting Energy Expenditure: 1,831 kcal/day
300 mg PX, 180 min, person one
  Resting Energy Expenditure: 2,402 kcal/day
300 mg PX, 180 min, person two
  Resting Energy Expenditure: 1,913 kcal/day
300 mg PX, Average of both
  Resting Energy Expenditure MEAN: 2,098 kcal/day
300 mg PX, person one
  Resting Energy Expenditure MEAN: 2,374 kcal/day
300 mg PX, person two
  Resting Energy Expenditure MEAN: 1,822 kcal/day

Source: US20220305019A1, “PARAXANTHINE-BASED COMPOSITIONS FOR PROMOTING WEIGHT LOSS” (Ingenious Ingredients, LP, priority 2021, published 2022)
